Data taken from patent publication US8324264B1, “Inhibitors of bacterial biofilms and related methods” (Sequoia Sciences, Inc., priority 2011, dated 2012).
In brackets after ≈: the same amount, converted by molar mass.

Tests used:
[1] = system: P. aeruginosa biofilms; assay: Biofilm growth assay (spreading biofilm on semi-solid agar), P. aeruginosa; format: cell-based; set-up: P. aeruginosa (n = 10) inhibitory concentration in the biofilm growth assay: unit: ug/mL
Method in brief: (§1)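 Values are compound concentrations (μg/ml) that cut the spreading-biofilm zone area by ≥85% relative to negative controls after overnight 37 °C growth from 5 μL central inoculum. E. coli plates: LB, 0.6% agar, 0.5% glucose; P. aeruginosa plates: M8 agar plus 0.2% glucose, 100 μM CaCl2, 1 mM MgSO4, 0.5% Casamino acids.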

[2] = system: E. coli biofilms; assay: Biofilm growth assay (spreading biofilm on semi-solid agar), E. coli; format: cell-based; set-up: E. coli (n = 10) inhibitory concentration in the biofilm growth assay: unit: ug/mL
Method in brief: as §1

[3] = system: B. cepacia; assay: Biofilm growth assay, Burkholderia cepacia; format: cell-based; details: Table 6, n = 10 isolates; M9 salts, 0.7% citrate, 0.4% Noble agar
Protocol: The biofilm growth assay was carried out to measure swarming or biofilm spreading on semi-solid agar media in round plates (for example, 100×15 mm), also referred to as Petri dishes. For E. coli, the plates contained LB medium with 0.6% agar and 0.5% glucose. P. aeruginosa plates were made with M8 agar supplemented with 0.2% glucose, 100 μM CaCl2, 1 mM MgSO4, and 0.5% Casamino acids. The agar plates of this assay consisted of 0.4% to 0.7% agar (Bacto or Noble agar), although other media may also be used as described in the literature and known to those skilled in the art. Test compounds at the desired concentration were added to the cooled, autoclaved media. Portions of the media were then poured into the plates (20 mL/plate), and the plates allowed to dry at room temperature for approximately 3 to 4 hours. Alternatively, however, plates may be dried in a laminar flow hood for approximately fifteen to twenty minutes. Overnight cultures were grown in a 37° C. shaker in LB (E. coli) or TSB (P. aeruginosa). Plates were inoculated by placing 5 μL of the appropriate overnight culture in the centers of the plates. The plates then were incubated overnight at 37° C. The area of the zone of spreading bacteria was then measured and replicates are averaged. Percent inhibition was calculated as 100×(area without compound−area with compound)/(area without compound). […] A > (“greater than” symbol) as used in Table 1 is well understood to those skilled in the art as an indication that the listed concentration was not effective at this concentration.
(§2) Table 6, below, lists the inhibitory concentrations of select compounds and antibiotics in the biofilm growth assay against various gram-negative bacterial biofilms. “N” means the number of isolates of bacteria tested. The biofilm growth assay procedure detailed in Example I, above, was followed. Burkholderia cepacia used media consisting of M9 salts, 100 μM CaCl2, 1 mM MgSO4, and 0.7% citrate in 0.4% Noble agar. Salmonella spp. used media consisting of Nutrient Broth with 0.5% glucose in 0.5% Noble agar.

[4] = system: Salmonella spp.; assay: Biofilm growth assay, Salmonella spp.; format: cell-based; details: Table 6, n = 6 isolates; Nutrient Broth, 0.5% glucose, 0.5% Noble agar
Protocol: The biofilm growth assay was carried out to measure swarming or biofilm spreading on semi-solid agar media in round plates (for example, 100×15 mm), also referred to as Petri dishes. For E. coli, the plates contained LB medium with 0.6% agar and 0.5% glucose. P. aeruginosa plates were made with M8 agar supplemented with 0.2% glucose, 100 μM CaCl2, 1 mM MgSO4, and 0.5% Casamino acids. The agar plates of this assay consisted of 0.4% to 0.7% agar (Bacto or Noble agar), although other media may also be used as described in the literature and known to those skilled in the art. Test compounds at the desired concentration were added to the cooled, autoclaved media. Portions of the media were then poured into the plates (20 mL/plate), and the plates allowed to dry at room temperature for approximately 3 to 4 hours. Alternatively, however, plates may be dried in a laminar flow hood for approximately fifteen to twenty minutes. Overnight cultures were grown in a 37° C. shaker in LB (E. coli) or TSB (P. aeruginosa). Plates were inoculated by placing 5 μL of the appropriate overnight culture in the centers of the plates. The plates then were incubated overnight at 37° C. The area of the zone of spreading bacteria was then measured and replicates are averaged. Percent inhibition was calculated as 100×(area without compound−area with compound)/(area without compound). An active compound was considered that which reduces the area of the spreading biofilm compared to negative controls by greater than or equal to 85%. The values shown in Table 1 are the concentrations of compounds (μg/ml) tested in the biofilm growth assay that reduce the area of the spreading biofilm compared to negative controls by greater than or equal to 85% unless noted differently in Table 1. A > (“greater than” symbol) as used in Table 1 is well understood to those skilled in the art as an indication that the listed concentration was not effective at this concentration.
as §2

[5] = system: Pseudomonas syringae; assay: Biofilm growth assay, plant pathogen Pseudomonas syringae; format: cell-based; details: M8 salts, 0.7% glucose, 0.5% Noble agar, 30° C., 24 to 48 hours
[6] = system: Xanthomonas campestris; assay: Biofilm growth assay, plant pathogen Xanthomonas campestris; format: cell-based; details: M8 salts, 0.7% glucose, 0.5% Noble agar, 30° C., 24 to 48 hours
[7] = system: Pectobacterium atrosepticum; assay: Biofilm growth assay, plant pathogen Pectobacterium atrosepticum; format: cell-based; details: M8 salts, 0.7% glucose, 0.5% Noble agar, 30° C., 24 to 48 hours
[8] = system: P. aeruginosa biofilms; assay: Biofilm Growth Assay with compound in half of the agar and antibiotic disks; format: cell-based; details: 0.125 μg/ml in agar with colistin 10 μg disks
Protocol: The Biofilm Growth Assay as described in Example VII was performed in round plates with the compounds of the invention in agar on half of the plate and antibiotic disks placed onto the agar containing the compounds of the invention.
The Biofilm Growth Assay was performed as described in Example VIII. 2 to 4 antibiotic disks were placed onto the agar containing a compound of the invention in a line parallel to the line that separates the two agars in one round plate. Appropriate negative and positive control plates were performed as known to those skilled in the art.

[9] = system: cysB; details: as described in U.S. Pat. No. 7,604,978; cited from earlier work

## CC1(C)CC[C@]2(C(=O)O)CC[C@]3(C)C(=CCC4[C@@]5(C)Cc6c(n[nH]c6N)C(C)(C)[C@@H]5CC[C@]43C)[C@@H]2C1 (stereo partly drawn) [Compound 1, (4aS,6aS,6bR,13aR)-12-Amino-2,2,6a,6b,9,9,13a-heptamethyl-2,3,4,4a,5,6,6a,6b,7,8,8a,9,11,13,13a,13b,14,15b-octadecahydro-1H-chryseno[1,2-f]indazole-4-a-carboxylic acid]
[1]; 0.5 μg/ml in agar, overnight 37° C.
  growth of the spreading P. aeruginosa biofilm (FIG. 1): prevented the growth
[1]; P. aeruginosa biofilm growth assay (FIG. 2 legend)
  optimal working concentration: 0.5 µg/mL
[1]; Pseudomonas aeruginosa, biofilm growth assay, overnight 37° C., vs negative controls, Tables 1-5, read-out: P. aeruginosa: concentration that reduces the area of the spreading biofilm by greater than or equal to 85%
  IC85: 0.5 µg/mL (≈ 1.01 µM)
[1]; Table 6, n = 10 isolates
  P. aeruginosa (n = 10) inhibitory concentration in the biofilm growth assay: 1
[2]; Escherichia coli, biofilm growth assay, overnight 37° C., vs negative controls, Tables 1-5, read-out: E. coli: concentration that reduces the area of the spreading biofilm by greater than or equal to 85%
  IC85: 1 µg/mL (≈ 2.03 µM)
[2]; Table 6, n = 10 isolates
  E. coli (n = 10) inhibitory concentration in the biofilm growth assay: 1
[3]
  B. cepacia (n = 10) inhibitory concentration in the biofilm growth assay: 0.25
[4]
  Salmonella spp. (n = 6) inhibitory concentration in the biofilm growth assay: 1
[5]
  concentration inhibiting the spreading biofilm of Pseudomonas syringae: 0.03 µg/mL
[6]
  concentration inhibiting the spreading biofilm of Xanthomonas campestris: 0.5 µg/mL
[7]
  concentration inhibiting the spreading biofilm of Pectobacterium atrosepticum: 0.06 µg/mL
[8]
  combination with colistin at preventing the growth of P. aeruginosa biofilms (FIG. 2): synergistic
[9]
  modulation of cysB and genes under its control: modulates cysB and genes under its control
